Calls of active or inactive are those of the source. For most assays here, no stated cut-off is given here; in the data, actives have a measured EC50 and inactives only a lower limit.
Legend:
[1] = Trypanosoma cruzi growth suppression in host cells – NIH3T3 host cells, beta-gal luminescence, confirmation (AID 2044); type: functional, cell-based;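 further: intracellular parasites grown in NIH/3T3 mouse fibroblasts as host cells; luminescent beta-galactosidase reporter signal from transgenic T. cruzi replicating inside host cells; inhibitors lower the luminescence signal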
Protein RecA = biological target: T1, Protein RecA (Mycobacterium tuberculosis, UniProt P9WHJ3); test: Fluorescence Cell-Free Homogeneous Dose Retest to Identify Inhibitors of RecA-Intein Splicing Activity. [Related pubchem assays (depositor defined):AID2097, AID2223, AID489010, AID492950]; type: functional
T1 sequence (P9WHJ3 whole entry): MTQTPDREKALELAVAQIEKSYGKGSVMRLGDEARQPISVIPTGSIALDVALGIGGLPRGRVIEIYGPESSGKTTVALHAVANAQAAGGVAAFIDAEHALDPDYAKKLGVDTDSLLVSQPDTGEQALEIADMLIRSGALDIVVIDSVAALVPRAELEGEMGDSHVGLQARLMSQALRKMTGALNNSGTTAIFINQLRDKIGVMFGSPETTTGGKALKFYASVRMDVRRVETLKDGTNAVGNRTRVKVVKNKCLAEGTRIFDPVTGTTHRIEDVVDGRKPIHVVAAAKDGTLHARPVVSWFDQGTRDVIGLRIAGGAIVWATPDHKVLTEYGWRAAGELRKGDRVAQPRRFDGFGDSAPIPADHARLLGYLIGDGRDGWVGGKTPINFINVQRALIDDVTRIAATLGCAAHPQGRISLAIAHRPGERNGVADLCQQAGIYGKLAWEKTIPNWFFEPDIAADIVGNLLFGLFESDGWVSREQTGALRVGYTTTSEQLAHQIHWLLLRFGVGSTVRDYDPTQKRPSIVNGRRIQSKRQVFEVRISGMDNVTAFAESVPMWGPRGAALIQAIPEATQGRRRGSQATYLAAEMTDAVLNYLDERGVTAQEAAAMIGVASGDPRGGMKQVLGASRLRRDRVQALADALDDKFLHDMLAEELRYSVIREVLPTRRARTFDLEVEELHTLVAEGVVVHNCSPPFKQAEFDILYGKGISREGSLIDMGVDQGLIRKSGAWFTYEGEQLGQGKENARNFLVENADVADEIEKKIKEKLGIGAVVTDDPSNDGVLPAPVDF

[2] = NIH3T3 cell viability loss – ATP luminescence, mouse fibroblasts, counter-screen, dose response (AID 2010); type: functional, cell-based;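 further: cells exposed to compound for about 90 hours before reading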
[3] = biological target: T2, Replicative DNA helicase DnaB (Mycobacterium tuberculosis, UniProt P9WMR3); test: DnaB intein splicing inhibitors, dose response, biochemical, cell-free fluorescence (AID 449749); type: functional
T2 sequence (P9WMR3 whole entry): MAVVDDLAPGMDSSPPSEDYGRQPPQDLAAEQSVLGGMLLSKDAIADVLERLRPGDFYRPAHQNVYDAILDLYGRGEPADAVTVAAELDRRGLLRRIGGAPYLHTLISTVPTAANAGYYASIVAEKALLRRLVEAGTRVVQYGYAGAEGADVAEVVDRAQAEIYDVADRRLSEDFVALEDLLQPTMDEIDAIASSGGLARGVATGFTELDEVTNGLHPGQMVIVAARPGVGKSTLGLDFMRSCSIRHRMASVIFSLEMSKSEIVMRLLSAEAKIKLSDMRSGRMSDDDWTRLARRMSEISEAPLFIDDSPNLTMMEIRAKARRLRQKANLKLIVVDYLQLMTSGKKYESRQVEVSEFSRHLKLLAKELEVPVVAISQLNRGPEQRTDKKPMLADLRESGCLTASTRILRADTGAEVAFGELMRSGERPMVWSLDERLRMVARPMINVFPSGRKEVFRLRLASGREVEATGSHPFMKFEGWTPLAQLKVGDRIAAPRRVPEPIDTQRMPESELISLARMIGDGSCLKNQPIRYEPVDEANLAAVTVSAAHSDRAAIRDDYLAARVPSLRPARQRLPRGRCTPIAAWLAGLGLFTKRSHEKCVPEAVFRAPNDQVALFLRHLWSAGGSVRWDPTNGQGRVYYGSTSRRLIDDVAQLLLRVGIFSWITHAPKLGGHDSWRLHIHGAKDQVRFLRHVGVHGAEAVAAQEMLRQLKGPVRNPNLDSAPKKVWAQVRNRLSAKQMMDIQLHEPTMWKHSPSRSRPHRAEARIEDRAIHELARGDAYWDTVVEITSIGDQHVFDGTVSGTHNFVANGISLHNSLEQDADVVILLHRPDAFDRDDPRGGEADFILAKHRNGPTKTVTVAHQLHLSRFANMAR

[4] = biological target: T3, Corticotropin-releasing factor receptor 2/Corticotropin-releasing factor-binding protein (Homo sapiens, UniProt P24387+Q13324); test: activators of CRF receptor 2 with binding protein – uHTS hits, confirmation (AID 602473); type: functional; settings: read-out: EC50_Mean
T3 sequence (Q13324 whole entry): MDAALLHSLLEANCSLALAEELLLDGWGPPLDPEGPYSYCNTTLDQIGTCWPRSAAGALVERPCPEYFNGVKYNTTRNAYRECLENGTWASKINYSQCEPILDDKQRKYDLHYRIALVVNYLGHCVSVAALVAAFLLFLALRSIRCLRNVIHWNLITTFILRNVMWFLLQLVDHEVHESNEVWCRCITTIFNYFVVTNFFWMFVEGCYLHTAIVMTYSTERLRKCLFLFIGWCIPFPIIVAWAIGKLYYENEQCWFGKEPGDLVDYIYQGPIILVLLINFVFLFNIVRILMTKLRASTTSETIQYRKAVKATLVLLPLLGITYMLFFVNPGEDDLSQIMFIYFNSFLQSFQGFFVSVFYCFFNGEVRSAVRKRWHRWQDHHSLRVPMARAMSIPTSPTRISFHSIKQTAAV
T3 sequence (P24387 whole entry): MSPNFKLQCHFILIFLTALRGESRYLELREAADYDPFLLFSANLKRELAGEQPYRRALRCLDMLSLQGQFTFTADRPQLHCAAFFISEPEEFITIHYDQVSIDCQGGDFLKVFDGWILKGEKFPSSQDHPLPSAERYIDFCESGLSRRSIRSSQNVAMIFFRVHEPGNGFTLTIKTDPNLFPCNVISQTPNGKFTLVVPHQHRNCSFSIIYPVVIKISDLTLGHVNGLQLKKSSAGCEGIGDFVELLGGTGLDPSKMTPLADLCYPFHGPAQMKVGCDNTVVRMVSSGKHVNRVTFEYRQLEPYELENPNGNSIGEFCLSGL

[5] = biological target: T3, Corticotropin-releasing factor receptor 2/Corticotropin-releasing factor-binding protein; test: Dose Response confirmation of uHTS hits for small molecule antagonists of the CRF-binding protein and CRF-R2 receptor complex.; type: functional; settings: read-out: IC50_Mean
[6] = biological target: T4, Heat shock factor protein 1 (Mus musculus, UniProt P38532); test: decrease of HSF1-responsive luciferase luminescence – cell-based, NIH3T3, dose retest, confirmation (AID 2382); type: functional;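 further: NIH3T3 fibroblasts with HSF1-driven luciferase reporter stressed by proteasome inhibitor MG132; luminescence from HSF1-driven luciferase expression after 8 hours of MG132 stress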
T4 sequence (P38532 whole entry): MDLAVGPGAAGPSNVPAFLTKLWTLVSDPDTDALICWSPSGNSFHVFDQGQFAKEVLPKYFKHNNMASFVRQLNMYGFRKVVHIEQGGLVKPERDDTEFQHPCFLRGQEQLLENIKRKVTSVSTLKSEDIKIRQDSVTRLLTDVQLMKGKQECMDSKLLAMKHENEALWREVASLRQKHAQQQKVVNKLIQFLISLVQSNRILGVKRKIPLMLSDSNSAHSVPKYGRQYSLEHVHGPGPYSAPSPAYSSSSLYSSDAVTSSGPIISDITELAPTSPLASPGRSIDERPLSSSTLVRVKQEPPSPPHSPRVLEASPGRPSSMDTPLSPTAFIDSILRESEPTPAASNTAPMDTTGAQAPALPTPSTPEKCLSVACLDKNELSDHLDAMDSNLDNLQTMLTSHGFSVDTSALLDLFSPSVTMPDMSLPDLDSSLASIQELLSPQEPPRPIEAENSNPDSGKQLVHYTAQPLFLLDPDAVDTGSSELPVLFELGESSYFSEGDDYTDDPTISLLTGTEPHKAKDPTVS

Paired box protein Pax-8 = Paired box protein Pax-8 (Homo sapiens, UniProt Q06710); test: PAX8 transcriptional activity inhibition in RMG-I – RMG-I cells, luciferase, cherry-pick, dose response (AID 687027); type: functional, cell-based;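 further: luciferase reporter driven by Pax8 target thyroperoxidase promoter measured by SteadyGlo luminescence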
[7] = biological target: T5, Zinc finger protein mex-5 (Caenorhabditis elegans, UniProt Q9XUB2); test: potency of MEX-5 RNA-binding blockers – biochemical, C. elegans, fluorescence polarization, dose response (AID 1960)
T5 sequence (Q9XUB2 whole entry): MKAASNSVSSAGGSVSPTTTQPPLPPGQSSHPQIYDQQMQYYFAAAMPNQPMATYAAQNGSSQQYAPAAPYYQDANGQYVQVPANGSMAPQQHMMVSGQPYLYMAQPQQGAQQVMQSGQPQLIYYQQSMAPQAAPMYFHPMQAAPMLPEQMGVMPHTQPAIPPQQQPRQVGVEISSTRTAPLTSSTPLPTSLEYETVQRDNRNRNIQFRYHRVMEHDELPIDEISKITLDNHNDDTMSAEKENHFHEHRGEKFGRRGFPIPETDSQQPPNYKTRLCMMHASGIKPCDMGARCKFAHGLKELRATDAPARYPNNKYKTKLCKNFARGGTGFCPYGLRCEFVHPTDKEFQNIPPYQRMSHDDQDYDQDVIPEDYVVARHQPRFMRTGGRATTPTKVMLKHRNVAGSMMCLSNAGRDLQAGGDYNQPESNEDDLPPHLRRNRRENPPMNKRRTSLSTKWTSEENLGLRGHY

[8] = biological target: T6, RNA-binding protein pos-1 (Caenorhabditis elegans, UniProt G5EF15); test: disruptors of C. elegans POS-1 RNA interaction – biochemical, fluorescence polarization, dose response (AID 1964);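 further: purified POS-1 fused to maltose binding protein made in E. coli; potency of compounds blocking POS-1 binding to fluorescent RNA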
T6 sequence (G5EF15 whole entry): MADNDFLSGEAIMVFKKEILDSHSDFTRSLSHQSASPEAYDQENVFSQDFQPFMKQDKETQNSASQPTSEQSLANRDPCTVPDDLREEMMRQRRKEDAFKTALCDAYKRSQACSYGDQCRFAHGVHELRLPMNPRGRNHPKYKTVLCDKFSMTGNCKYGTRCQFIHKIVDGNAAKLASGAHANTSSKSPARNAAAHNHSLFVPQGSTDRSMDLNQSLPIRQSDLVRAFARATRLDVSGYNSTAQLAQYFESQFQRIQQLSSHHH

Sequence of Paired box protein Pax-8 (Q06710 whole entry): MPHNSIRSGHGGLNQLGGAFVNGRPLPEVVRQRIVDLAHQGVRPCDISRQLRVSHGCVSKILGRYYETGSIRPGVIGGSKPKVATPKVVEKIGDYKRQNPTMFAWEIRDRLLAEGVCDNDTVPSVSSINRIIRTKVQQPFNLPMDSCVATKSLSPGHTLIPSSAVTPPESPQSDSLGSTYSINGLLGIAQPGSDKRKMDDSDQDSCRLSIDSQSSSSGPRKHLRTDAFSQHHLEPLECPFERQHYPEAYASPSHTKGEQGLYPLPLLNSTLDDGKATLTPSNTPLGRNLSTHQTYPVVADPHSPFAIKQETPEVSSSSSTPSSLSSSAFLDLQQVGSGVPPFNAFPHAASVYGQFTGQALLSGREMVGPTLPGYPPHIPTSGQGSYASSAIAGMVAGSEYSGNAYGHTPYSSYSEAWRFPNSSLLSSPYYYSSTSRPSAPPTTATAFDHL

CC(=O)N(C)Cc1ccc(C(=O)CCl)cc1
EC50 [1]: 2.51 µM (active)
EC50 (Protein RecA): 19.4 µM (active)
EC50 [2]: 3.7 µM (active)
AC50 [3]: 56.2 µM (active)

CCN(CC)C(=O)c1ccc2c(c1[N+](=O)[O-])C(=O)c1ccccc1C2=O
EC50 (Protein RecA): > 380 µM (inactive)
AC50 [3]: > 380 µM (inactive)

Cc1ccc2nc(N3C(=O)C(O)=C(C(=O)c4ccc(C)o4)C3c3cccc(O)c3)sc2c1 (configuration not stated)
EC50 [4]: > 53 µM (inactive)
IC50 [5]: 7.83 µM (active)

C#CCNC(=O)C1=C[C@H](c2ccc3c(c2)OCO3)[C@@H](CCCO)[C@H](OCC)O1
EC50 [4]: > 53 µM (inactive)
IC50 [5]: > 47.1 µM (inactive)

CCOC(=O)CSc1nnc(NCC(=O)OC(C)C)c(=O)[nH]1
EC50 (Protein RecA): 9.44 µM (active)
AC50 [3]: 3.45 µM (active)

Cn1c(SCC(=O)c2ccc3c(c2)OCCO3)nnc1C(F)(F)F
EC50 [4]: > 53 µM (inactive)
IC50 [5]: > 47.1 µM (inactive)

O=c1ccc2cc(S(=O)(=O)NCc3ccccc3)ccc2[nH]1
EC50 [4]: > 53 µM (inactive)
IC50 [5]: > 47.1 µM (inactive)

CC(=O)c1ccc(N2CCN(C(=O)CCS(=O)(=O)c3ccc4c(c3)CCN4C(C)=O)CC2)cc1
EC50 [4]: > 53 µM (inactive)
IC50 [5]: > 47.1 µM (inactive)

COc1ccccc1C(=O)NC(CCSC)C(=O)NC1CCCCCC1 (configuration not stated)
EC50 [4]: > 53 µM (inactive)
IC50 [5]: > 47.1 µM (inactive)

Cc1noc(C)c1COC(=O)Cc1ccc(Br)cc1
EC50 (Protein RecA): > 380 µM (inactive)
AC50 [3]: 124 µM (active)

COC(=O)c1nnc(NC(=O)c2ccc(C(C)(C)C)cc2)[nH]1
EC50 (Protein RecA): 10.1 µM (active)
EC50 [6]: > 195 µM (not active)
AC50 [3]: 3.57 µM (active)

Cc1cc2c(NS(=O)(=O)c3ccc(F)cc3)cccc2nn1
EC50 [4]: > 53 µM (inactive)
IC50 [5]: > 47.1 µM (inactive)

COc1ccc(S(=O)(=O)N(C)C[C@H]2Oc3ccc(NC(=O)Nc4ccc(C(F)(F)F)cc4)cc3C(=O)N([C@H](C)CO)C[C@@H]2C)cc1
AC50 (Paired box protein Pax-8): 8.69 µM (active)

O=C(Nc1ccccc1)c1nc[nH]c1C(=O)NCCN(CCNC(=O)c1[nH]cnc1C(=O)Nc1ccccc1)CCNC(=O)c1[nH]cnc1C(=O)Nc1ccccc1
EC50 [4]: > 53 µM (inactive)
IC50 [5]: > 47.1 µM (inactive)

CCOc1ccc(C(=O)NNC(=O)CCNC(=O)c2ccco2)cc1OC
EC50 [4]: > 53 µM (inactive)
IC50 [5]: > 47.1 µM (inactive)

CCCOc1ccc(/C=c2\sc3nc(-c4ccco4)nn3c2=O)cc1OCC
EC50 [7]: > 300 µM (not active)
EC50 [8]: > 300 µM (not active)

C[C@H](CO)N1C[C@H](C)[C@H](CN(C)S(=O)(=O)c2ccc(Cl)cc2)OCCCC[C@H](C)Oc2ccc(NS(=O)(=O)c3ccc(F)cc3)cc2C1=O
AC50 (Paired box protein Pax-8): 9.43 µM (active)

C[C@@H]1CCCCO[C@@H](CN(C)Cc2ccc(Cl)c(Cl)c2)[C@H](C)CN([C@H](C)CO)C(=O)c2cc(NC(=O)Nc3ccccc3)ccc2O1
AC50 (Paired box protein Pax-8): 12.5 µM (active)

CCOC(=O)c1c2ccc(OCC(=O)N/N=C/c3ccc(Cl)cc3)cc2n2ccccc12
EC50 [8]: > 300 µM (not active)
